Each structure is given as a SMILES string.

Ki and IC50 data for 20 compounds are collected here from ChEMBL document CHEMBL4813971, “Development of novel benzofuran-based SLC-0111 analogs as selective cancer-associated carbonic anhydrase isoform IX inhibitors” (Eur J Med Chem, 2021).

The target in experiment [1] is T1, Carbonic anhydrase 9 (Homo sapiens, UniProt Q16790). Briefly: Inhibition of human CA9 by stopped- flow CO2 hydration assay.
In experiment [2] the target is T1, Carbonic anhydrase 9. In words: Inhibition of human CA9 preincubated for 15 mins by phenol red dye based stopped flow CO2 hydration assay.
Experiment [3] has as its target Carbonic anhydrase 1 (Homo sapiens, UniProt P00915). In words: Inhibition of human CA1 by stopped- flow CO2 hydration assay.
For experiment [4], the system named is MDA-MB-231. Briefly: Antiproliferative activity against human MDA-MB-231 cells incubated for 2 days by MTT assay. As to conditions: MDA-MB-231, 48 h. On the technique in general: Tetrazolium assays rely on reduction of a dye to a coloured formazan, in cell work by metabolically active cells.
The test system of experiment [5] is MCF7. Briefly: Antiproliferative activity against human MCF7 cells incubated for 2 days by MTT assay. As to conditions: MCF7, 48 h.

Sequence of Carbonic anhydrase 1 (P00915 whole entry): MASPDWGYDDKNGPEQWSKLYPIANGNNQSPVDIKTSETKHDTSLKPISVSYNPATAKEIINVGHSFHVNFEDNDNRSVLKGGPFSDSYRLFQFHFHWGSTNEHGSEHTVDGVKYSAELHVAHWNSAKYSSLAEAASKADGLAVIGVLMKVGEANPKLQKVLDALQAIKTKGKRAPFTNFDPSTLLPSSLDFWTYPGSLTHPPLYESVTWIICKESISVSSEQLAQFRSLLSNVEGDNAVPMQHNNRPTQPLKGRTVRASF

For the compound `Cc1c(NC(=O)Nc2ccccc2S(N)(=O)=O)oc2ccccc12`, in experiment [1], the Ki – broadly, a dissociation constant, usually derived from enzyme kinetics or from competition with a known ligand – came out at 68.2 nM. As to `Cc1ccc(S(=O)(=O)C/C(=N\Nc2ccc(S(N)(=O)=O)cc2)c2cc3cc(Br)ccc3o2)cc1`, the affinity in experiment [2], expressed as Ki, was 10 nM. In experiment [1], `Cc1c(NC(=O)Oc2ccc(S(N)(=O)=O)cc2)oc2ccccc12` displayed an inhibition constant (Ki) of 34.5 nM.

Regarding `Cc1noc(NS(=O)(=O)c2ccc(NC(=O)Nc3oc4ccccc4c3C)cc2)c1C`, the results for the Ki in experiment [3] and in experiment [1] were more than 100000 nM and 560 nM, respectively. `Cc1ccc(NC(=O)Nc2oc3ccccc3c2C)cc1S(N)(=O)=O` yielded a Ki in experiment [1] of 8.4 nM. Also, the IC50 (usually the midpoint of a concentration-inhibition curve) was determined as 6270 nM in experiment [4] and 6450 nM in experiment [5]. Compound `NS(=O)(=O)c1cc(S(N)(=O)=O)c(NC(=O)Nc2cc3cc(Br)ccc3o2)cc1Cl` came in with an inhibition constant Ki in experiment [1] of 22.8 nM. Regarding `C/C(=N\Nc1ccc(S(N)(=O)=O)cc1)c1cc2cc(Br)ccc2o1`, the Ki in experiment [2] worked out at 27.7 nM. `NS(=O)(=O)c1ccccc1NC(=O)Nc1cc2cc(Br)ccc2o1`: in experiment [1], the inhibition constant Ki worked out at 35.8 nM. This lies in the double-digit nanomolar range. `NS(=O)(=O)c1cccc(NC(=O)Nc2cc3cc(Br)ccc3o2)c1` gave a Ki in experiment [1] of 20.2 nM. As to `Cc1c(NC(=O)Nc2ccc(S(N)(=O)=O)cc2)oc2ccccc12`, the Ki in experiment [1] is 10.4 nM. This Ki is about 1.9-fold lower than that of the compound before. Turning to `NS(=O)(=O)c1ccc(NC(=O)Nc2cc3cc(Br)ccc3o2)cc1`, affinity in experiment [1] was put at a Ki of 7.1 nM. Same read-out and setting: to `Cc1c(NC(=O)NCCc2ccc(S(N)(=O)=O)cc2)oc2ccccc12` belongs 7.6 nM; to `Cc1c(NC(=O)Nc2cc(Cl)c(S(N)(=O)=O)cc2S(N)(=O)=O)oc2ccccc12`, 53.9 nM. In the case of `Cc1noc(NS(=O)(=O)c2ccc(NC(=O)Nc3cc4cc(Br)ccc4o3)cc2)c1C`, the results for the Ki in experiment [3] and in experiment [1] were more than 100000 nM and 2300 nM, respectively. In turn, `Cc1c(NC(=O)Nc2ccc(S(=O)(=O)Nc3nccs3)cc2)oc2ccccc12` displayed a Ki in experiment [1] of 650 nM. `Cc1c(NC(=O)NNC(=O)c2ccc(S(N)(=O)=O)cc2)oc2ccccc12` showed a Ki in experiment [1] of 12.6 nM. For `NS(=O)(=O)c1ccc(C(=O)NNC(=O)Nc2cc3cc(Br)ccc3o2)cc1`, the affinity in experiment [1], expressed as Ki, was 1.8 nM. Compared with the last compound, the Ki is about 7-fold lower. `Cc1ccc(NC(=O)Nc2cc3cc(Br)ccc3o2)cc1S(N)(=O)=O` had an inhibition constant Ki in experiment [1] of 5.5 nM. Further, the values for the IC50 in experiment [4] and in experiment [5] were 14200 nM and 13800 nM, respectively.

Take `Cc1c(NC(=O)Nc2cccc(S(N)(=O)=O)c2)oc2ccccc12`: the inhibition constant (Ki) in experiment [1] was found to be 25.3 nM.

Consider `O=C(Nc1ccc(S(=O)(=O)Nc2nccs2)cc1)Nc1cc2cc(Br)ccc2o1`, for which the Ki in experiment [3] was more than 100000 nM; in experiment [1], 930 nM.
